Here are results for 26 compounds from patent publication US10323022B2, “Pyrrolidinyl urea, pyrrolidinyl thiourea and pyrrolidinyl guanidine compounds as TrkA kinase inhibitors” (Array BioPharma Inc., priority 2011, dated 2019).

Sequence of TrkA (P04629 33-796): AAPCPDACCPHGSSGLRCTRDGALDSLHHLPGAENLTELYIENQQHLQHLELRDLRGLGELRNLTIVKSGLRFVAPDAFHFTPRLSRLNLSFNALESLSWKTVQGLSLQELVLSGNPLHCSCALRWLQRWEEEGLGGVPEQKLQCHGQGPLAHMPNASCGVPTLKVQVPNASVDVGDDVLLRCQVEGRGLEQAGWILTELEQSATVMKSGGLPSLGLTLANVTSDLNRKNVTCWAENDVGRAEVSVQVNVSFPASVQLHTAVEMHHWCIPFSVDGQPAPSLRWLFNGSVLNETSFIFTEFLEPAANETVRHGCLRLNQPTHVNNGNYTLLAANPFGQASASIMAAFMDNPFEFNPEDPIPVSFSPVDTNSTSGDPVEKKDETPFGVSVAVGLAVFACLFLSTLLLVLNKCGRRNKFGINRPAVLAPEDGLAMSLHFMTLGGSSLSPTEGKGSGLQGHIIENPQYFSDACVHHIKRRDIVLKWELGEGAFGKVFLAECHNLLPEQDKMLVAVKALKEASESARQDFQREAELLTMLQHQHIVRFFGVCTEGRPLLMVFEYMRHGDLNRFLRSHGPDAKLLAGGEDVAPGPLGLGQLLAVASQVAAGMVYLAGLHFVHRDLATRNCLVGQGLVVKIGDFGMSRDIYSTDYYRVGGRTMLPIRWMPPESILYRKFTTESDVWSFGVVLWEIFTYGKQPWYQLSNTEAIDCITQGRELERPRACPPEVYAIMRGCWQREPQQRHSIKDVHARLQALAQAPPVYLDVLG

The target of this test is TrkA (Homo sapiens (Human), UniProt P04629). Description: TrkA Omnia Assay. It counts as biochemical. To be noted: averaged IC50; 20 nM enzyme, 500 μM ATP, 10 μM peptide substrate. The method in brief:
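Recombinant TrkA (20 nM) preincubated 10 min at ambient temperature with compound, then Omnia Tyr Peptide #4 (10 μM) and ATP (500 μM) added in 25 mM MOPS pH 7.5, 5 mM MgCl2, 0.005% Triton X-100. Fluorescence (ex 360/em 485 nm) followed continuously for 70 min; IC50 from initial rates by 4- or 5-parameter logistic fit.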
The IC50 is the midpoint of a concentration-inhibition curve. Low readings indicate higher potency, high ones lower potency. With `COCCN1C[C@@H](NC(=O)Nc2c(C)c(C)nn2-c2ccccc2)[C@H](c2cncc(Cl)c2)C1` (relative stereo) [Example 343, 1-(trans-4-(5-chloropyridin-3-yl)-1-(2-methoxyethyl)pyrrolidin-3-yl)-3-(3,4-dimethyl-1-phenyl-1H-pyrazol-5-yl)urea], the IC50 is less than 100 nM.
Next, `COCCN1C[C@@H](NC(=O)Nc2c(C)c(CC(C)(C)O)nn2-c2ccccc2)[C@H](c2ccc(F)c(F)c2)C1` [Example 288, 1-((3S,4R)-4-(3,4-difluorophenyl)-1-(2-methoxyethyl)pyrrolidin-3-yl)-3-(3-(2-hydroxy-2-methylpropyl)-4-methyl-1-phenyl-1H-pyrazol-5-yl)urea]: less than 100 nM; `COCCN1C[C@@H](NC(=O)Nc2c(-c3ccccc3)c(C)nn2C)[C@H](c2ccccc2)C1` (relative stereo) [Example 28, 1-(1,3-dimethyl-4-phenyl-1H-pyrazol-5-yl)-3-(trans-1-(2-methoxyethyl)-4-phenylpyrrolidin-3-yl)urea]: 100 to 1000 nM; `Cc1c(OC[C@H]2COC(C)(C)O2)nn(-c2ccccc2)c1NC(=O)N[C@H]1CN(CC(F)(F)F)C[C@@H]1c1ccccc1` [Example 271, 1-(3-(((S)-2,2-dimethyl-1,3-dioxolan-4-yl)methoxy)-4-methyl-1-phenyl-1H-pyrazol-5-yl)-3-((3R,4S)-4-phenyl-1-(2,2,2-trifluoroethyl)pyrrolidin-3-yl)urea]: less than 100 nM.
Compound `Cc1c(OCC#N)nn(-c2ccccc2)c1NC(=O)N[C@H]1CN(CC(F)(F)F)C[C@@H]1c1ccccc1` [Example 268, 1-(3-(cyanomethoxy)-4-methyl-1-phenyl-1H-pyrazol-5-yl)-3-((3R,4S)-4-phenyl-1-(2,2,2-trifluoroethyl)pyrrolidin-3-yl)urea] yielded an IC50 of less than 100 nM.
`COCCCc1nn(-c2ccccc2)c(NC(=O)N[C@@H]2CN(CCOC)C[C@H]2c2ccc(F)c(F)c2)c1C` [Example 127, 1-((3S,4R)-4-(3,4-difluorophenyl)-1-(2-methoxyethyl)pyrrolidin-3-yl)-3-(3-(3-methoxypropyl)-4-methyl-1-phenyl-1H-pyrazol-5-yl)urea]: the IC50 was less than 100 nM.
`COCCN1C[C@@H](NC(=O)Nc2cc(-c3cccc(C)c3)nn2C)[C@H](c2ccc(F)c(F)c2)C1` [Example 103, 1-((3S,4R)-4-(3,4-difluorophenyl)-1-(2-methoxyethyl)pyrrolidin-3-yl)-3-(1-methyl-3-m-tolyl-1H-pyrazol-5-yl) urea]: the IC50 was less than 100 nM.
Next, `COCCN1C[C@@H](NC(=O)Nc2c(C)c(C(=O)N(C)C)nn2-c2ccccc2)[C@H](c2ccc(F)c(F)c2)C1` [Example 460, 5-(3-((3S,4R)-4-(3,4-difluorophenyl)-1-(2-methoxyethyl)pyrrolidin-3-yl)ureido)-N,N,4-trimethyl-1-phenyl-1H-pyrazole-3-carboxamide]: less than 100 nM.
Next, `COCCN1C[C@@H](NC(=O)Nc2c(C)c(OCC3COC3)nn2-c2ccccc2)[C@H](c2ccc(F)c(F)c2)C1` [Example 74, 1-((3S,4R)-4-(3,4-difluorophenyl)-1-(2-methoxyethyl)pyrrolidin-3-yl)-3-(4-methyl-3-(oxetan-3-ylmethoxy)-1-phenyl-1H-pyrazol-5-yl)urea]: less than 100 nM.
Turning to `CCOc1nn(-c2ccccc2)c(NC(=O)N[C@@H]2CN(c3cn[nH]c3)C[C@H]2c2cc(F)cc(F)c2)c1C` [Example 217, 1-((3S,4R)-4-(3,5-difluorophenyl)-1-(1H-pyrazol-4-yl)pyrrolidin-3-yl)-3-(3-ethoxy-4-methyl-1-phenyl-1H-pyrazol-5-yl)urea], the IC50 was less than 100 nM.
Next, `COCCN1C[C@@H](NC(=O)Nc2c(C)c(-c3cnn(CC4CC4)c3)nn2-c2ccccc2)[C@H](c2ccc(F)c(F)c2)C1` [Example 500, 1-(1′-(cyclopropylmethyl)-4-methyl-l-phenyl-1H, 1′H-[3,4′-bipyrazol]-5-yl)-3-((3S,4R)-4-(3,4-difluorophenyl)-1-(2-methoxyethyl)pyrrolidin-3-yl)urea]: less than 100 nM; `COCCN1C[C@@H](NC(=O)Nc2c(C)c(COC)nn2-c2ccccc2)[C@H](c2ccc(F)c(F)c2)C1` [Example 123, 1-((3S,4R)-4-(3,4-difluorophenyl)-1-(2-methoxyethyl)pyrrolidin-3-yl)-3-(3-(methoxy-methyl)-4-methyl-1-phenyl-1H-pyrazol-5-yl)urea]: less than 100 nM; `Cc1c(OC[C@H](C)O)nn(-c2ccccc2)c1NC(=O)N[C@@H]1CN(c2cn[nH]c2)C[C@H]1c1ccc(F)c(F)c1` [Example 221, 1-((3S,4R)-4-(3,4-difluorophenyl)-1-(1H-pyrazol-4-yl)pyrrolidin-3-yl)-3-(3-((S)-2-hydroxypropoxy)-4-methyl-1-phenyl-1H-pyrazol-5-yl)urea]: less than 100 nM.
Next, `COCCN1C[C@@H](NC(=O)Nc2c(C)c(OC(=O)N3CCOCC3)nn2-c2ccccc2)[C@H](c2ccc(F)c(F)c2)C1` [Example 397, 5-(3-((3S,4R)-4-(3,4-difluorophenyl)-1-(2-methoxyethyl)pyrrolidin-3-yl)ureido)-4-methyl-1-phenyl-1H-pyrazol-3-yl morpholine-4-carboxylate]: less than 100 nM; `COCCN1C[C@@H](NC(=O)Nc2c(Br)c(C3CCN(C(C)=O)CC3)nn2-c2ccccc2)[C@H](c2ccc(F)c(F)c2)C1` [Example 593, 1-(3-(1-acetylpiperidin-4-yl)-4-bromo-1-phenyl-1H-pyrazol-5-yl)-3-((3S,4R)-4-(3,4-difluorophenyl)-1-(2-methoxyethyl)pyrrolidin-3-yl)urea]: less than 100 nM.
Compound `CCOC(=O)c1nn(-c2ccccc2)c(NC(=O)N[C@@H]2CN(CCOC)C[C@H]2c2ccc(F)c(F)c2)c1C` [Example 291, ethyl 5-(3-((3S,4R)-4-(3,4-difluorophenyl)-1-(2-methoxyethyl)pyrrolidin-3-yl)ureido)-4-methyl-1-phenyl-1H-pyrazole-3-carboxylate] returned an IC50 of less than 100 nM.
Next, `C[C@@H]1C(NC(=O)Nc2c3c(nn2-c2ccccc2)CCC3)[C@H](c2ccccc2)CN1CC(F)(F)F` (stereo partly drawn) [Example 273, (R,S)1-((2α,3β,4α)-2-methyl-4-phenyl-1-(2,2,2-trifluoroethyl)pyrrolidin-3-yl)-3-(2-phenyl-2,4,5,6-tetrahydrocyclopenta[c]pyrazol-3-yl)urea]: 100 to 1000 nM; `COCCN1C[C@@H](NC(=O)Nc2c(Br)c(C3CCN(C(=O)OC(C)(C)C)CC3)nn2-c2ccccc2)[C@H](c2ccc(F)c(F)c2)C1` [Example 575, Tert-butyl 4-(4-bromo-5-(3-((3S,4R)-4-(3,4-difluorophenyl)-1-(2-methoxyethyl)pyrrolidin-3-yl)ureido)-1-phenyl-1H-pyrazol-3-yl)piperidine-1-carboxylate]: less than 100 nM.
Next, `COCCN1C[C@@H](NC(=O)Nc2c(C)c(-c3ccc(=O)n(C)c3)nn2-c2ccccc2)[C@H](c2ccc(F)c(F)c2)C1` [Example 506, 1-((3S,4R)-4-(3,4-difluorophenyl)-1-(2-methoxyethyl)pyrrolidin-3-yl)-3-(4-methyl-3-(1-methyl-6-oxo-1,6-dihydropyridin-3-yl)-1-phenyl-1H-pyrazol-5-yl)urea]: less than 100 nM; `COCCN1C[C@@H](NC(=O)Nc2c(C)c(-c3cnn(C)c3)nn2-c2ccccc2F)[C@H](c2ccc(F)c(F)c2)C1` [Example 314, 1-((3S,4R)-4-(3,4-difluorophenyl)-1-(2-methoxyethyl)pyrrolidin-3-yl)-3-(1-(2-fluorophenyl)-1′,4-dimethyl-1H,1′H-[3,4′-bipyrazol]-5-yl)urea]: less than 100 nM.
For `COCCN1C[C@@H](NC(=O)Nc2c3c(nn2-c2ccccc2)CCC3)[C@H](c2ccc(F)c(F)c2)C1` (relative stereo) [Example 3, trans-1-(4-(3,4-difluorophenyl)-1-(2-methoxyethyl)pyrrolidin-3-yl)-3-(2-phenyl-2,4,5,6-tetrahydrocyclopenta[c]pyrazol-3-yl)urea], the IC50 is less than 100 nM.
Next, `COCCN1C[C@@H](NC(=O)Nc2c(C(F)(F)F)c(OC)nn2-c2ccccc2)[C@H](c2ccc(F)cc2)C1` [Example 607, 1-((3S,4R)-4-(4-fluorophenyl)-1-(2-methoxyethyl)pyrrolidin-3-yl)-3-(3-methoxy-1-phenyl-4-(trifluoromethyl)-1H-pyrazol-5-yl)urea]: less than 100 nM; `CNC(=O)c1nn(-c2ccccc2)c(NC(=O)N[C@@H]2CN(CCOC)C[C@H]2c2ccc(F)c(Cl)c2)c1C` (relative stereo) [Example 301, 5-(3-(trans-4-(3-chloro-4-fluorophenyl)-1-(2-methoxyethyl)pyrrolidin-3-yl)ureido)-N,4-dimethyl-1-phenyl-1H-pyrazole-3-carboxamide]: less than 100 nM.
Next, `COCCN1C[C@@H](NC(=O)Nc2c(Cl)c(C)nn2-c2ccccc2)[C@H](c2ccc(F)c(F)c2)C1` [Example 64, 1-(4-chloro-3-methyl-1-phenyl-1H-pyrazol-5-yl)-3-((3S,4R)-4-(3,4-difluorophenyl)-1-(2-methoxyethyl)pyrrolidin-3-yl)urea]: less than 100 nM; `COCCN1C[C@@H](NC(=O)Nc2c(Br)c(C3CCOCC3)nn2-c2ccccc2)[C@H](c2ccc(F)cc2)C1` [Example 576, 1-(4-bromo-1-phenyl-3-(tetrahydro-2H-pyran-4-yl)-1H-pyrazol-5-yl)-3-((3S,4R)-4-(4-fluorophenyl)-1-(2-methoxyethyl)pyrrolidin-3-yl)urea]: less than 100 nM.
Next, `CNC(=O)c1nn(-c2ccccc2)c(NC(=O)N[C@@H]2CN(CCOC)C[C@H]2c2ccc(Cl)c(F)c2)c1C` (relative stereo) [Example 302, 5-(3-(trans-4-(4-chloro-3-fluorophenyl)-1-(2-methoxyethyl)pyrrolidin-3-yl)ureido)-N,4-dimethyl-1-phenyl-1H-pyrazole-3-carboxamide]: less than 100 nM.
